In general, IC50 refers to the concentration that gives 50% inhibition.

For 29 compounds, IC50 results are on record in patent publication US9914730B2, “Azaquinazoline inhibitors of Atypical protein Kinase C” (Ignyta, Inc., priority 2012, dated 2018).

Each structure is given as a SMILES string.

The assay concerns the target T1, full-length human PKCι (Homo sapiens, UniProt P41743).
T1 construct: Recombinant, full-length human PKCι expressed in Sf21 insect cells is also commercially available; purchased; host or cells: Sf21 insect cells
T1 sequence (P41743 1-596): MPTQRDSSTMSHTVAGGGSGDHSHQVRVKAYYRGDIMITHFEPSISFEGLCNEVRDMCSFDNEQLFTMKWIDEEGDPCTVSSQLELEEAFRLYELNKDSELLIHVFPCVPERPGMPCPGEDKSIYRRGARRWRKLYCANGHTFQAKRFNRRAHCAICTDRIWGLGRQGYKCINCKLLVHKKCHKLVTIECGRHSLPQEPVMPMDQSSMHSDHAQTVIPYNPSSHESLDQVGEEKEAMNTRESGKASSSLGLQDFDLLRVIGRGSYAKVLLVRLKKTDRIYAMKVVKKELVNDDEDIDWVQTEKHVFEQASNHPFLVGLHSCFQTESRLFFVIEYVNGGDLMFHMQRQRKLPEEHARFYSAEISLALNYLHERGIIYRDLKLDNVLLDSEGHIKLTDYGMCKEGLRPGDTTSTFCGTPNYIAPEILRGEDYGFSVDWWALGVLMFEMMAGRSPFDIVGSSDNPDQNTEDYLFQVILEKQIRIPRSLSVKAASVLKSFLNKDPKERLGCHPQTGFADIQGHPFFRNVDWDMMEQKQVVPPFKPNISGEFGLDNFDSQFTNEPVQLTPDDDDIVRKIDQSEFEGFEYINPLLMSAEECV
Put plainly: PKCι IC50 IMAP assay, full-length PKCι at 150 μM ATP. It is filed as biochemical. Particulars: read-out: IC50 in IMAP assay against full length PKCi at 150 μM ATP. Put shortly: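 Phosphorylation of a 5FAM-tagged PKCε pseudopeptide-derived substrate (100 nM) by full-length recombinant human PKCι was monitored by IMAP fluorescence polarisation. ATP was held at 150 μM, five times its apparent KM, with 60 min room-temperature incubation.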

For `CC(C)(c1cc2c(-c3nc(N4CCNCC4)c4c(C5CC5)cncc4n3)ccnc2[nH]1)C(F)(F)F` [Example 2063, 5-Cyclopropyl-4-piperazin-1-yl-2-[2-(2,2,2-trifluoro-1,1-dimethyl-ethyl)-1H-pyrrolo[2,3-b]pyridin-4-yl]-pyrido[3,4-d]pyrimidine], the half-maximal inhibitory concentration (IC50) was less than 100 nM. As to `Fc1ccc(Cl)nc1Nc1cc(-c2nc(N3CCNCC3)c3c(C4CC4)cncc3n2)ccn1` [Example 801, (6-Chloro-3-fluoro-pyridin-2-yl)-[4-(5-cyclopropyl-4-piperazin-1-yl-pyrido[3,4-d]pyrimidin-2-yl)-pyridin-2-yl]-amine], the IC50 was less than 100 nM. As to `N#Cc1ccc(CC(=O)Nc2cc(-c3nc(N[C@@H]4CCNC4)c4ccncc4n3)ccn2)cc1` [Example 349, 2-(4-Cyano-phenyl)-N-{4-[4-((R)-pyrrolidin-3-ylamino)-pyrido[3,4-d]pyrimidin-2-yl]-pyridin-2-yl}-acetamide], the IC50 is less than 100 nM. Regarding `Fc1ccc2nc(Nc3cc(-c4nc(N5CCNCC5)c5c(C6CC6)cncc5n4)ccn3)nn2c1` [Example 2039, [4-(5-Cyclopropyl-4-piperazin-1-yl-pyrido[3,4-d]pyrimidin-2-yl)-pyridin-2-yl]-(6-fluoro-[1,2,4]triazolo[1,5-a]pyridin-2-yl)-amine], the IC50 is less than 100 nM.

For the compound `COc1cncc2nc(-c3ccnc(Nc4cccc(OCC(N)=O)c4)c3)nc(N[C@@H]3CCNC3)c12` [Example 323, 2-(3-{4-[5-Methoxy-4-((R)-pyrrolidin-3-ylamino)-pyrido[3,4-d]pyrimidin-2-yl]-pyridin-2-ylamino}-phenoxy)-acetamide], the half-maximal inhibitory concentration (IC50) is less than 100 nM. As for `COc1cncc2nc(-c3ccnc(Nc4ccccc4)c3)nc(N3CCN[C@@H](CF)C3)c12` [Example 233, {4-[4-((R)-3-Fluoromethyl-piperazin-1-yl)-5-methoxy-pyrido[3,4-d]pyrimidin-2-yl]-pyridin-2-yl}-phenyl-amine], the figure is 100 to 1000 nM; as for `Cn1cnc(Nc2cc(-c3nc(N4CCNCC4)c4c(C5CC5)cncc4n3)ccn2)c1` [Example 605, [4-(5-Cyclopropyl-4-piperazin-1-yl-pyrido[3,4-d]pyrimidin-2-yl)-pyridin-2-yl]-(1-methyl-1H-imidazol-4-yl)-amine], less than 100 nM. For the compound `Cc1ncccc1Nc1cc(-c2nc(N3CCNCC3)c3c(C4CC4)cncc3n2)ccn1` [Example 544, [4-(5-Cyclopropyl-4-piperazin-1-yl-pyrido[3,4-d]pyrimidin-2-yl)-pyridin-2-yl]-(2-methyl-pyridin-3-yl)-amine], the concentration for half-maximal inhibition (IC50) is less than 100 nM. As to `c1ccc2c(c1)OCCC2Nc1cc(-c2nc(N3CCNCC3)c3c(C4CC4)cncc3n2)ccn1` (centres unmarked) [Example 712, Chroman-4-yl-[4-(5-cyclopropyl-4-piperazin-1-yl-pyrido[3,4-d]pyrimidin-2-yl)-pyridin-2-yl]-amine], the IC50 is less than 100 nM.

Take `Fc1cc(F)c(Nc2cc(-c3nc(N4CCNCC4)c4c(C5CC5)cncc4n3)ccn2)cn1` [Example 748, [4-(5-Cyclopropyl-4-piperazin-1-yl-pyrido[3,4-d]pyrimidin-2-yl)-pyridin-2-yl]-(4,6-difluoro-pyridin-3-yl)-amine]: the IC50 was less than 100 nM. As for `Fc1ccccc1Nc1cc(-c2nc(N3CCNCC3)c3c(Cl)cncc3n2)ccn1` [Example 247, [4-(5-Chloro-4-piperazin-1-yl-pyrido[3,4-d]pyrimidin-2-yl)-pyridin-2-yl]-(2-fluoro-phenyl)-amine], the figure is 100 to 1000 nM. As to `FC(F)(F)c1cc2c(-c3nc(N4CCC4)c4c(C5CC5)cncc4n3)ccnc2[nH]1` [Example 1248, 4-Azetidin-1-yl-5-cyclopropyl-2-(2-trifluoromethyl-1H-pyrrolo[2,3-b]pyridin-4-yl)-pyrido[3,4-d]pyrimidine], the IC50 was in the range of 10000 to 40000 nM. Consider `Fc1ccc(F)c(Nc2cc(-c3nc(N4CCNCC4)c4c(Nc5c(F)ccc(F)c5F)cncc4n3)ccn2)c1F` [Example 261, {4-Piperazin-1-yl-2-[2-(2,3,6-trifluoro-phenylamino)-pyridin-4-yl]-pyrido[3,4-d]pyrimidin-5-yl}-(2,3,6-trifluoro-phenyl)-amine], for which the IC50 lay in the range of 100 to 1000 nM. Turning to `NC(=O)c1cc(F)c(Nc2cc(-c3nc(N4CCNCC4)c4c(C5CC5)cncc4n3)ccn2)c(F)c1` [Example 822, 4-[4-(5-Cyclopropyl-4-piperazin-1-yl-pyrido[3,4-d]pyrimidin-2-yl)-pyridin-2-ylamino]-3,5-difluoro-benzamide], the IC50 was in the range of 1000 to 10000 nM.

Take `Fc1ccccc1-c1cc2c(-c3nc(N4CCNCC4)c4c(C5CCC5)cncc4n3)ccnc2[nH]1` [Example 2203, 5-Cyclobutyl-2-[2-(2-fluoro-phenyl)-1H-pyrrolo[2,3-b]pyridin-4-yl]-4-piperazin-1-yl-pyrido[3,4-d]pyrimidine]: the IC50 was less than 100 nM. As for `NCc1ccc(-c2nccc3c(NC[C@@H](N)Cc4ccccc4)nc(-c4ccncc4)nc23)o1` [Example 121, N-[(2S)-2-amino-3-phenylpropyl]-8-[5-(amino-methyl)-furan-2-yl]-2-(pyridin-4-yl)pyrido[3,4-d]pyrimidin-4-amine], the figure is 100 to 1000 nM.

`COc1cncc2nc(-c3ccnc(Nc4ccc(N5CCOCC5)cc4)c3)nc(N[C@@H]3CCNC3)c12` [Example 229, {5-Methoxy-2-[2-(4-morpholin-4-yl-phenylamino)-pyridin-4-yl]-pyrido[3,4-d]pyrimidin-4-yl}-(R)-pyrrolidin-3-yl-amine]: the IC50 is less than 100 nM.

In the case of `c1cc(-c2nc(N3CCNCC3)c3c(C4CC4)cncc3n2)cc(NC2CCOCC2)n1` [Example 283, [4-(5-Cyclopropyl-4-piperazin-1-yl-pyrido[3,4-d]pyrimidin-2-yl)-pyridin-2-yl]-(tetrahydro-pyran-4-yl)-amine], the IC50 is less than 100 nM. Turning to `Cc1cc2c(-c3nc(N4CCNCC4)c4c(C5CCC5)cncc4n3)ccnc2[nH]1` [Example 2112, 5-Cyclobutyl-2-(2-methyl-1H-pyrrolo[2,3-b]pyridin-4-yl)-4-piperazin-1-yl-pyrido[3,4-d]pyrimidine], the IC50 is less than 100 nM. The result for `COc1cncc2nc(-c3ccnc(Nc4ncco4)c3)nc(N3CCNCC3)c12` [Example 220, [4-(5-Methoxy-4-piperazin-1-yl-pyrido[3,4-d]pyrimidin-2-yl)-pyridin-2-yl]-oxazol-2-yl-amine] reads less than 100 nM. As for `O[C@@H]1CCN(c2nc(-c3ccncc3)nc3cnccc23)C1` [Example 36, (3R)-1-[2-(pyridin-4-yl)pyrido[3,4-d]-pyrimidin-4-yl]-pyrrolidin-3-ol], the IC50 fell in the range of 10000 to 40000 nM. Take `Fc1ccc(F)c2c1[nH]c1nccc(-c3nc(N4CCNCC4)c4c(C5CC5)cncc4n3)c12` [Example 2027, 4-(5-Cyclopropyl-4-piperazin-1-yl-pyrido[3,4-d]pyrimidin-2-yl)-5,8-difluoro-9H-pyrido[2,3-b]indole]: the half-maximal inhibitory concentration (IC50) is less than 100 nM. The result for `COc1cncc2nc(-c3ccnc(NC(=O)c4ccccc4)c3)nc(N3CCNCC3)c12` [Example 212, N-[4-(5-Methoxy-4-piperazin-1-yl-pyrido[3,4-d]pyrimidin-2-yl)-pyridin-2-yl]-benzamide] reads less than 100 nM; that for `COc1cncc2nc(-c3ccnc(Nc4ccc(N5CCOCC5)nc4)c3)nc(N3CCNCC3)c12` [Example 375, [4-(5-Methoxy-4-piperazin-1-yl-pyrido[3,4-d]pyrimidin-2-yl)-pyridin-2-yl]-(6-morpholin-4-yl-pyridin-3-yl)-amine], less than 100 nM; that for `COc1cccc(Nc2cc(-c3nc(N4CCC(O)CC4)c4c(OC)cncc4n3)ccn2)n1` [Example 469, 1-{5-Methoxy-2-[2-(6-methoxy-pyridin-2-ylamino)-pyridin-4-yl]-pyrido[3,4-d]pyrimidin-4-yl}-piperidin-4-ol], 1000 to 10000 nM.

As to `c1ccc(C[C@H]2CN(c3nc(N4CCOCC4)nc4cnccc34)CCN2)cc1` [Example 1000, 4-((S)-3-Benzyl-piperazin-1-yl)-2-morpholin-4-yl-pyrido[3,4-d]pyrimidine], the IC50 fell in the range of 1000 to 10000 nM. For the compound `COc1cncc2nc(-c3ccnc(Nc4cc(C#N)ccn4)c3)nc(N3CCNCC3)c12` [Example 352, 2-[4-(5-Methoxy-4-piperazin-1-yl-pyrido[3,4-d]pyrimidin-2-yl)-pyridin-2-ylamino]-isonicotinonitrile], the IC50 is less than 100 nM. The result for `CN(c1nc(-c2ccnc(Nc3ncc(F)cc3F)c2)nc2c(Cl)ncc(C3CC3)c12)C1CCNCC1` [Example 2170, {8-Chloro-5-cyclopropyl-2-[2-(3,5-difluoro-pyridin-2-ylamino)-pyridin-4-yl]-pyrido[3,4-d]pyrimidin-4-yl}-methyl-piperidin-4-yl-amine] reads less than 100 nM; that for `COc1cncc2nc(-c3ccnc(Nc4ccc(N5CCOCC5)cc4C)c3)nc(N3CCNCC3)c12` [Example 383, [4-(5-Methoxy-4-piperazin-1-yl-pyrido[3,4-d]pyrimidin-2-yl)-pyridin-2-yl]-(2-methyl-4-morpholin-4-yl-phenyl)-amine], less than 100 nM.
